Test results published in patent US20230257396A1, “MACROCYCLES AND THEIR USE” (BLOSSOMHILL THERAPEUTICS, INC., priority 2020, published 2023).

Tests used:
Assay in all cases: KINOMEscan kinase binding assay (Eurofins/DiscoveRx), % Ctrl
Settings in all cases: 1 μM
kinases [1] = molecular target: T1, kinases (Homo sapiens, UniProt P36888, D835H)
T1 construct: purchased Eurofins/DiscoveRx; host or cells: E. coli BL21-derived host (T7 phage display) for most kinases; HEK-293 for the rest
T1 sequence (P36888 27-993 D835H): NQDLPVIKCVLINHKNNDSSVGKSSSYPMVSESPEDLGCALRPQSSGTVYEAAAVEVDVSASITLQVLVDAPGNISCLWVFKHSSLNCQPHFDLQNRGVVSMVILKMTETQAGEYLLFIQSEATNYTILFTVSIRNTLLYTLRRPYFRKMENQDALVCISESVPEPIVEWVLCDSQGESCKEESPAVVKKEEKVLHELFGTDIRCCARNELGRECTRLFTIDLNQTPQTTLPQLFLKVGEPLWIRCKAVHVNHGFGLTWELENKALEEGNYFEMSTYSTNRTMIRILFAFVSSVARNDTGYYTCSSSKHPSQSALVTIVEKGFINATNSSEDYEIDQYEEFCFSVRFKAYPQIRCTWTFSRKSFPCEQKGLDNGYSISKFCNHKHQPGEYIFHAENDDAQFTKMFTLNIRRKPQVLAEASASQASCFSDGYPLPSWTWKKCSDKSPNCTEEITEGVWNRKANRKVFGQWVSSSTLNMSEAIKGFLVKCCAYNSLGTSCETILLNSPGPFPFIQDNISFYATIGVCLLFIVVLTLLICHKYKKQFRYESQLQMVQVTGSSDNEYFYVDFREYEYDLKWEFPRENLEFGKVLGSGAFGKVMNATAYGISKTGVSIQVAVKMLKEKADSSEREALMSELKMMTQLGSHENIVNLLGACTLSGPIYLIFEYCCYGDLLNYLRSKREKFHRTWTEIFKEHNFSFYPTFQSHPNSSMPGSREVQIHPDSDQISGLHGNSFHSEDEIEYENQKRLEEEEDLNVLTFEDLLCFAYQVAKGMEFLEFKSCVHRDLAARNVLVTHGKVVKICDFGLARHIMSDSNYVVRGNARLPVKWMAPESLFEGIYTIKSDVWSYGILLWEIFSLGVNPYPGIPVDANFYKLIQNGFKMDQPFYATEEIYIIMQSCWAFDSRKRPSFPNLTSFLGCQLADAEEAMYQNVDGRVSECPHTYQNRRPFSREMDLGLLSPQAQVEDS
Method in brief: (§1)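 Competition binding: DNA- or phage-tagged kinases (T7 phage in E. coli BL21, or HEK-293-expressed) with immobilized biotinylated ligand beads and test compound, 1 h at room temperature. Bead-bound kinase eluted and quantified by qPCR; % Ctrl = (compound − positive control)/(negative control − positive control) ×100 at a single compound concentration.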

kinases [2] = molecular target: T2, kinases (Homo sapiens, UniProt P00519, F317I)
T2 construct: purchased Eurofins/DiscoveRx; host or cells: E. coli BL21-derived host (T7 phage display) for most kinases; HEK-293 for the rest
T2 sequence (P00519 whole entry F317I): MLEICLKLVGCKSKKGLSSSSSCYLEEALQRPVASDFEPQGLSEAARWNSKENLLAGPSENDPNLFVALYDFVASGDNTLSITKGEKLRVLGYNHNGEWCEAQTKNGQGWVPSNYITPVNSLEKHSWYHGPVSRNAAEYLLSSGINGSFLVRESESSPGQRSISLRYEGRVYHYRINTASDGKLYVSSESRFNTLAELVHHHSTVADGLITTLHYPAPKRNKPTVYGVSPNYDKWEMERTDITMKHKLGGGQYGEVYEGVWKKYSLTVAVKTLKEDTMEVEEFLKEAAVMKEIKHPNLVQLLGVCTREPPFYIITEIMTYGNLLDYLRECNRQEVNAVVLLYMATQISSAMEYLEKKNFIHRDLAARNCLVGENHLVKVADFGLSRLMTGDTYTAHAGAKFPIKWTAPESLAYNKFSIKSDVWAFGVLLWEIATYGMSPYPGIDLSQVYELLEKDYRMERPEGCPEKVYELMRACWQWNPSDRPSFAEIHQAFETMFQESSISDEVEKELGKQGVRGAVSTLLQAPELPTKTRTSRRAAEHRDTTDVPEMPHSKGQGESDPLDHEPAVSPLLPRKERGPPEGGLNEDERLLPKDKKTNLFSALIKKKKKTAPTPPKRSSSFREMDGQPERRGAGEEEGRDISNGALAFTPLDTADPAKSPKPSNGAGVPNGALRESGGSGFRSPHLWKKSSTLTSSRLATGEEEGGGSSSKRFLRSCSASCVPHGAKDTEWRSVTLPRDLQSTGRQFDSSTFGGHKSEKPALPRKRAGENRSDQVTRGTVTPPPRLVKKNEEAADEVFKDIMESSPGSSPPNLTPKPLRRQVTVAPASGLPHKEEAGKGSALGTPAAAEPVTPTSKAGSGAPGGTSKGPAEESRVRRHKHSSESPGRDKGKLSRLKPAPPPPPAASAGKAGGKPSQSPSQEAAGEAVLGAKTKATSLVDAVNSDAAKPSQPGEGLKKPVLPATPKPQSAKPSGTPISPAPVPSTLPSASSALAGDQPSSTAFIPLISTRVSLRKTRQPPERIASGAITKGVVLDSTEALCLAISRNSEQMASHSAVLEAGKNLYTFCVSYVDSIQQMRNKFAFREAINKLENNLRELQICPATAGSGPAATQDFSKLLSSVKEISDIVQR
Method in brief: as §1

kinases [3] = molecular target: T3, kinases (Homo sapiens, UniProt P00519)
T3 construct: purchased Eurofins/DiscoveRx; host or cells: E. coli BL21-derived host (T7 phage display) for most kinases; HEK-293 for the rest
T3 sequence (P00519 whole entry): as the sequence (P00519 whole entry F317I) above, with I317F counted along it
Method in brief: as §1

kinases [4] = molecular target: T4, kinases (Homo sapiens, UniProt P00533, G719C)
T4 construct: purchased Eurofins/DiscoveRx; host or cells: E. coli BL21-derived host (T7 phage display) for most kinases; HEK-293 for the rest
Method in brief: as §1

kinases [5] = molecular target: T5, kinases (Homo sapiens, UniProt P10721)
T5 construct: purchased Eurofins/DiscoveRx; host or cells: E. coli BL21-derived host (T7 phage display) for most kinases; HEK-293 for the rest
T5 sequence (P10721 26-976): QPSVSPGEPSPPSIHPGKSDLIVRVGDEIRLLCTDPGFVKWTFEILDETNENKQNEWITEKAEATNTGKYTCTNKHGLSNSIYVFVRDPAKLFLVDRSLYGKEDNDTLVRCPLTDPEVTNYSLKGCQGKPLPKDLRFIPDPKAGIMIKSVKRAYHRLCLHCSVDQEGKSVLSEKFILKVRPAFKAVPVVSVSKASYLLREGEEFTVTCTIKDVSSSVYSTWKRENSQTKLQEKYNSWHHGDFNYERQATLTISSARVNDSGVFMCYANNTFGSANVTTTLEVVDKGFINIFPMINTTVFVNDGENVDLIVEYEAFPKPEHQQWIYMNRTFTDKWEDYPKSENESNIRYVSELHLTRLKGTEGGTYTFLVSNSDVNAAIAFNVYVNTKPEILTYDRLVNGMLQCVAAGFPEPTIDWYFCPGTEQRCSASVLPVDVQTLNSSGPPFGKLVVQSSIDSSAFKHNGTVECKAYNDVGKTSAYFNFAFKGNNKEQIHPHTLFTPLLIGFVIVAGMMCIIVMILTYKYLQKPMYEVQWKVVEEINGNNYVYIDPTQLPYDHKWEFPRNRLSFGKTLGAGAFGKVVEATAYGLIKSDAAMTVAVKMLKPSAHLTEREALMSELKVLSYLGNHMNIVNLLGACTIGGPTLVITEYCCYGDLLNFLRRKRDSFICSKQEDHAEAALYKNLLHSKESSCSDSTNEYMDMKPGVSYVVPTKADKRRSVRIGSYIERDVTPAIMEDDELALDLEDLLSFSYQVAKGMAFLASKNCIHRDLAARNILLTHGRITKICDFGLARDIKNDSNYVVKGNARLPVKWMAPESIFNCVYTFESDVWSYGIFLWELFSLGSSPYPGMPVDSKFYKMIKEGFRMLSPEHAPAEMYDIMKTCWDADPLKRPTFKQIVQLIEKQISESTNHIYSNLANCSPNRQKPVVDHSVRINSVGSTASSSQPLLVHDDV
Method in brief: as §1

kinases [6] = molecular target: T6, kinases (Homo sapiens, UniProt P10721, D816V)
T6 construct: purchased Eurofins/DiscoveRx; host or cells: E. coli BL21-derived host (T7 phage display) for most kinases; HEK-293 for the rest
T6 sequence (P10721 26-976 D816V): as the sequence (P10721 26-976) above, with D791V counted along it
Method in brief: as §1

kinases [7] = molecular target: T7, kinases (Homo sapiens, UniProt P16234)
T7 construct: purchased Eurofins/DiscoveRx; host or cells: E. coli BL21-derived host (T7 phage display) for most kinases; HEK-293 for the rest
T7 sequence (P16234 24-1089): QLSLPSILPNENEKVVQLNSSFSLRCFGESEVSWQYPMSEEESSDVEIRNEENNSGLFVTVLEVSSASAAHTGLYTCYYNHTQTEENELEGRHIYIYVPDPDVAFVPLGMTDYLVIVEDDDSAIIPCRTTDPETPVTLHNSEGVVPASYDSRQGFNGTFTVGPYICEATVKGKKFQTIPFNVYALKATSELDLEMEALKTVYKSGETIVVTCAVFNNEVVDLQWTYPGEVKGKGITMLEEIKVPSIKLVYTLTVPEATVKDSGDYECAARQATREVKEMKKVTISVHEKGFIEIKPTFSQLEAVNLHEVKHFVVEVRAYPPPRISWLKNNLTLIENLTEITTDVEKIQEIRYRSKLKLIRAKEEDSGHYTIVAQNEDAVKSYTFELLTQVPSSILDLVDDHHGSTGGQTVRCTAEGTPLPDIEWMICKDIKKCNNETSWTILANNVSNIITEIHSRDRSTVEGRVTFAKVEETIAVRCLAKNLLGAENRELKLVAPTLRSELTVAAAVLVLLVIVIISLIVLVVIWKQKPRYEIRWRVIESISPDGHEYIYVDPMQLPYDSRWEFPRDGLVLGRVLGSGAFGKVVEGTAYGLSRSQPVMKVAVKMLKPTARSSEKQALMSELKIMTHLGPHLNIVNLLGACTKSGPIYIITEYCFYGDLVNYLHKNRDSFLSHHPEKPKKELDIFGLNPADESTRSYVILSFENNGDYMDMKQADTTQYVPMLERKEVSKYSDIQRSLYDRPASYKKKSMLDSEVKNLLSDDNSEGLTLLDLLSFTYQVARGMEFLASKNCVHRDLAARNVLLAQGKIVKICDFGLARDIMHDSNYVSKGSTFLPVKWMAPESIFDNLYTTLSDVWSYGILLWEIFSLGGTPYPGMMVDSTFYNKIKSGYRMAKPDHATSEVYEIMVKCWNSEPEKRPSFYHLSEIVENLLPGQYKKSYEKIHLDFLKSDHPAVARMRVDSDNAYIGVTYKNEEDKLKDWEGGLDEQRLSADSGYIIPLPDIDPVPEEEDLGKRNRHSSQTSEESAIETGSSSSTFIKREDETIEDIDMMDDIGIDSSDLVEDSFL
Method in brief: as §1

kinases [8] = molecular target: T8, kinases (Homo sapiens, UniProt P10721, V559D)
T8 construct: purchased Eurofins/DiscoveRx; host or cells: E. coli BL21-derived host (T7 phage display) for most kinases; HEK-293 for the rest
T8 sequence (P10721 26-976 V559D): as the sequence (P10721 26-976) above, with V534D counted along it
Method in brief: as §1

kinases [9] = molecular target: T9, kinases (Homo sapiens, UniProt P00533, DEL752-759)
T9 construct: purchased Eurofins/DiscoveRx; host or cells: E. coli BL21-derived host (T7 phage display) for most kinases; HEK-293 for the rest
Method in brief: as §1

kinases [10] = molecular target: T10, kinases (Homo sapiens, UniProt P17948)
T10 construct: purchased Eurofins/DiscoveRx; host or cells: E. coli BL21-derived host (T7 phage display) for most kinases; HEK-293 for the rest
Method in brief: as §1

kinases [11] = molecular target: T11, kinases (Homo sapiens, UniProt P35916)
T11 construct: purchased Eurofins/DiscoveRx; host or cells: E. coli BL21-derived host (T7 phage display) for most kinases; HEK-293 for the rest
Method in brief: as §1

kinases [12] = molecular target: T12, kinases (Homo sapiens, UniProt P09619)
T12 construct: purchased Eurofins/DiscoveRx; host or cells: E. coli BL21-derived host (T7 phage display) for most kinases; HEK-293 for the rest
T12 sequence (P09619 33-1106): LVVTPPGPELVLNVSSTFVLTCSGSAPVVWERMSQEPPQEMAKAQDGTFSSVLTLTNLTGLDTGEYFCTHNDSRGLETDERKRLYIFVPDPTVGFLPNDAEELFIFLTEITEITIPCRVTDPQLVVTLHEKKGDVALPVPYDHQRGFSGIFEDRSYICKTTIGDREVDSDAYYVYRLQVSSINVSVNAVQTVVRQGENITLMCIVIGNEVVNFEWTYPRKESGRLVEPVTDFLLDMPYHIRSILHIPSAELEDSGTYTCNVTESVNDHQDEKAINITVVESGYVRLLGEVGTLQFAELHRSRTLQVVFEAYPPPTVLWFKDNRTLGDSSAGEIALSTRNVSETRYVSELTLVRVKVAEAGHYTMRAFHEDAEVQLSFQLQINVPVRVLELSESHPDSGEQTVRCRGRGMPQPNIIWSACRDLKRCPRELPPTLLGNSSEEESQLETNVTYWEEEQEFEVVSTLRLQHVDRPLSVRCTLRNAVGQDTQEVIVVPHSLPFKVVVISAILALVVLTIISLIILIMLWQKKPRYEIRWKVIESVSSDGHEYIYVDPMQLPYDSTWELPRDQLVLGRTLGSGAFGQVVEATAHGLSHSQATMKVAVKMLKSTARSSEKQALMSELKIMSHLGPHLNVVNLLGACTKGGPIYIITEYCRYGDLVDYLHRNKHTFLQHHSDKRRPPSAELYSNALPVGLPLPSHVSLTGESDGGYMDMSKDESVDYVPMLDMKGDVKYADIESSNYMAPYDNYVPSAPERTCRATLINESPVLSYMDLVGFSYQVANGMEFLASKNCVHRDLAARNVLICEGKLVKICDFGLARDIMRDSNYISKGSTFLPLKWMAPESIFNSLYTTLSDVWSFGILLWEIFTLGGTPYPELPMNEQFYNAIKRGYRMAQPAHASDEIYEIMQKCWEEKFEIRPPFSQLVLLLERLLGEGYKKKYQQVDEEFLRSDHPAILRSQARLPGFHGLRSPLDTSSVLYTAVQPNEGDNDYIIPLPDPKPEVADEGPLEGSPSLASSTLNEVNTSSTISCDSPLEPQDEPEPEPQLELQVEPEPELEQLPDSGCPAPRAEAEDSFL
Method in brief: as §1

kinases [13] = molecular target: T13, kinases (Homo sapiens, UniProt P00533, L858R)
T13 construct: purchased Eurofins/DiscoveRx; host or cells: E. coli BL21-derived host (T7 phage display) for most kinases; HEK-293 for the rest
Method in brief: as §1

% Ctrl, FLT3(D835H) (kinases [1]; FLT3(D835H)) | % Ctrl, ABL1(F317I)-nonphosphorylated (kinases [2]; ABL1(F317I)-nonphosphorylated) | % Ctrl, ABL1(F317I)-phosphorylated (kinases [2]; ABL1(F317I)-phosphorylated) | % Ctrl, ABL1-nonphosphorylated (kinases [3]; ABL1-nonphosphorylated) | % Ctrl, ABL1-phosphorylated (kinases [3]; ABL1-phosphorylated) | % Ctrl, EGFR(G719C) (kinases [4]; EGFR(G719C)) | % Ctrl, KIT (kinases [5]; KIT) | % Ctrl, KIT-autoinhibited (kinases [5]; KIT-autoinhibited) | % Ctrl, KIT(D816V) (kinases [6]; KIT(D816V)) | % Ctrl, PDGFRA (kinases [7]; PDGFRA) | % Ctrl, KIT(V559D) (kinases [8]; KIT(V559D)) | % Ctrl, EGFR(S752-I759del) (kinases [9]; EGFR(S752-I759del)) | % Ctrl, FLT1 (kinases [10]; FLT1) | % Ctrl, FLT4 (kinases [11]; FLT4) | % Ctrl, PDGFRB (kinases [12]; PDGFRB) | % Ctrl, EGFR(L858R) (kinases [13]; EGFR(L858R)) | also measured | Compound
39 % Ctrl | 93 % Ctrl | 89 % Ctrl | 65 % Ctrl | 68 % Ctrl | 92 % Ctrl | 65 % Ctrl | 75 % Ctrl | 34 % Ctrl | 70 % Ctrl | 47 % Ctrl | 90 % Ctrl | 89 % Ctrl | 98 % Ctrl | 60 % Ctrl | 95 % Ctrl | – | Cc1cc2c([nH]1)/C=C1\C(=O)Nc3cc(Cl)c(cc31)OCCO[C@@H](C(=O)NC1CNC1)CN(C)C2=O [Ex. 133, [7R,16a(17)Z]-N-(azetidin-3-yl)-19-chloro-2,5-dimethyl-4,16-dioxo-4,5,6,7,9,10,15,16-octahydro-1H-12,14-(ethanediylidene)dipyrrolo[3,2-i:3′,4′-l][1,4,7]dioxazacyclopentadecine-7-carboxamide]
35 % Ctrl | 84 % Ctrl | 70 % Ctrl | 46 % Ctrl | 38 % Ctrl | 89 % Ctrl | 60 % Ctrl | 94 % Ctrl | 56 % Ctrl | 72 % Ctrl | 43 % Ctrl | 88 % Ctrl | 97 % Ctrl | 90 % Ctrl | 66 % Ctrl | 89 % Ctrl | – | Cc1cc2c([nH]1)/C=C1\C(=O)Nc3cc(Cl)c(cc31)OCCO[C@@H](C(=O)NC1CCNCC1)CN(C)C2=O [Ex. 134, [7R,16a(17)Z]-19-chloro-2,5-dimethyl-4,16-dioxo-N-(piperidin-4-yl)-4,5,6,7,9,10,15,16-octahydro-1H-12,14-(ethaneidylidene)dipyrrolo[3,2-i:3′,4′-l][1,4,7]dioxazacyclopentadecine-7-carboxamide]
88 % Ctrl | 100 % Ctrl | 100 % Ctrl | 83 % Ctrl | 100 % Ctrl | 90 % Ctrl | 97 % Ctrl | 97 % Ctrl | 100 % Ctrl | 100 % Ctrl | 99 % Ctrl | 93 % Ctrl | 96 % Ctrl | 94 % Ctrl | 94 % Ctrl | 94 % Ctrl | – | Cc1cc2c([nH]1)/C=C1\C(=O)Nc3cnc(cc31)-c1cnn(C)c1COCCNC2=O [Ex.123, [3a(4)Z]-6,14-dimethyl-10,11,13,14-tetrahydro-2H-17,1-(azenometheno)pyrazolo[4,3-m]dipyrrolo[3,2-f:3′,4′-i][1,4]oxazacyclopentadecine-3,8(5H,9H)-dione]
– | – | – | – | – | – | – | – | – | – | – | – | – | – | – | – | % Ctrl, FLT3(D835H) (kinases [1]; target FLT3(D835H)): 0.3 % Ctrl; % Ctrl, ABL1(F317I)-nonphosphorylated (kinases [2]; target ABL1(F317I)-nonphosphorylated): 20 % Ctrl; % Ctrl, ABL1(F317I)-phosphorylated (kinases [2]; target ABL1(F317I)-phosphorylated): 37 % Ctrl; % Ctrl, ABL1-nonphosphorylated (kinases [3]; target ABL1-nonphosphorylated): 1.3 % Ctrl; % Ctrl, ABL1-phosphorylated (kinases [3]; target ABL1-phosphorylated): 18 % Ctrl; % Ctrl, EGFR(G719C) (kinases [4]; target EGFR(G719C)): 49 % Ctrl; % Ctrl, KIT-autoinhibited (kinases [5]; target KIT-autoinhibited): 14 % Ctrl; % Ctrl, KIT (kinases [5]; target KIT): 0.8 % Ctrl; % Ctrl, KIT(D816V) (kinases [6]; target KIT(D816V)): 6.8 % Ctrl; % Ctrl, PDGFRA (kinases [7]; target PDGFRA): 9.1 % Ctrl; % Ctrl, KIT(V559D) (kinases [8]; target KIT(V559D)): 0.3 % Ctrl; % Ctrl, EGFR(S752-I759del) (kinases [9]; target EGFR(S752-I759del)): 100 % Ctrl; % Ctrl, FLT1 (kinases [10]; target FLT1): 3.5 % Ctrl; % Ctrl, FLT4 (kinases [11]; target FLT4): 11 % Ctrl; % Ctrl, PDGFRB (kinases [12]; target PDGFRB): 0.5 % Ctrl; % Ctrl, EGFR(L858R) (kinases [13]; target EGFR(L858R)): 86 % Ctrl | CN1CCSCCOc2cc3c(cc2Cl)NC(=O)/C3=C\c2[nH]ccc2C1=O [Ex. 153]
0.05 % Ctrl | 0 % Ctrl | 0.3 % Ctrl | 0 % Ctrl | 0.1 % Ctrl | 86 % Ctrl | 6.3 % Ctrl | 84 % Ctrl | 0.3 % Ctrl | 1.2 % Ctrl | 1.4 % Ctrl | 32 % Ctrl | 0.65 % Ctrl | 0 % Ctrl | 0 % Ctrl | 31 % Ctrl | – | Cc1cc2c([nH]1)/C=C1\C(=O)Nc3ccc(cc31)-c1cnn(C)c1CN(C)CCN(C)C2=O [Ex. 126, [3a(4)Z]-6,9,12,14-tetramethyl-9,10,11,12,13,14-hexahydro-1,17-(ethanediylidene)pyrazolo[4,3-m]dipyrrolo[3,2-f:3′,4′-i][1,4]diazacyclopentadecine-3,8(2H,5H)-dione]
37 % Ctrl | 96 % Ctrl | 84 % Ctrl | 33 % Ctrl | 58 % Ctrl | 82 % Ctrl | 55 % Ctrl | 82 % Ctrl | 76 % Ctrl | 79 % Ctrl | 45 % Ctrl | 92 % Ctrl | 85 % Ctrl | 100 % Ctrl | 80 % Ctrl | 93 % Ctrl | – | CNC(=O)[C@H]1CN(C)C(=O)c2cc(C)[nH]c2/C=C2\C(=O)Nc3cc(Cl)c(cc32)OCCO1 [Ex. 135, [7R,16a(17)Z]-19-chloro-N,2,5-trimethyl-4,16-dioxo-4,5,6,7,9,10,15,16-octahydro-1H-12,14-(ethanediylidene)dipyrrolo[3,2-i:3′,4′-l][1,4,7]dioxazacyclopentadecine-7-carboxamide]
